The record followed here is patent publication US20240173432A1, “Compositions and Methods for Treatment of Myotonic Dystrophy Type 1 with CRISPR/SluCas9” (Vertex Pharmaceuticals Incorporated, priority 2021, published 2024).

Data set [1] relates to CTG repeat in the 3′ UTR of human DMPK gene. As to the kind of experiment: Dual-cut screening: CTG repeat excision efficiency by loss-of-signal ddPCR. The settings on record: sgRNA pair, primary DM1 patient myoblasts; for Excision efficiency (by ddPCR): 3 μM DNA-PKi Compound 6 for 48 hours; for Excision efficiency by ddPCR (Vehicle): vehicle (DMSO). Type of data set: cell-based. In short, it runs like this:
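Upstream and downstream SluCas9 RNPs (20 pmol protein, 60 pmol sgRNA each) mixed 1:1 and nucleofected into primary DM1 patient myoblasts, then treated 48 h with DMSO or 3 μM DNA-PKi Compound 6. Genomic DNA taken 72 h post-nucleofection; excision read as loss of target signal by ddPCR versus a DMPK exon 1 reference.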

Data set [2] concerns CUG foci in primary DM1 patient myoblasts. As to the kind of experiment: Dual-cut screening: FISH staining of CUG RNA foci. Type of data set: cell-based, human. The settings on record: sgRNA pair, primary DM1 patient myoblasts; for % of CUG foci free nuclei (DNA-PKi): 3 μM DNA-PKi Compound 6 for 48 hours; for % of CUG foci free nuclei (Vehicle): vehicle (DMSO). In outline: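 SluCas9 RNPs (protein:sgRNA 1:3; 20 pmol SluCas9 + 60 pmol sgRNA per guide, paired 1:1) nucleofected into primary DM1 patient myoblasts, then DMSO or 3 μM DNA-PKi Compound 6 for 48 h. At 72 h post-nucleofection cells fixed, FISH-stained with Cy3-PNA(CAG)5 probe plus anti-MBNL1 and Hoechst; % CUG foci-free nuclei by high-content confocal imaging.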

“SluU10 + SluD56 (guide 1 CCCGTTGGAAGACTGAGTGCCC; guide 2 CCAGCCGGCTCCGCCCGCTTCG; guide RNA; listed as DNA, chemistry not fully specified)”: in data set [1], the “Excision efficiency (by ddPCR)” value came to 54.92 and the “Excision efficiency by ddPCR (Vehicle)” value amounted to 33.89. In data set [2], the “% of CUG foci free nuclei (DNA-PKi)” value is 83.68% and the “% of CUG foci free nuclei (Vehicle)” value was 49.83%.
“SluU62 + SluD34 (guide 1 AGGACCCTTCGAGCCCCGTTCG; guide 2 CGCGCCAGACGCTCCCCAGAGC; guide RNA; listed as DNA, chemistry not fully specified)”: in data set [1], the “Excision efficiency (by ddPCR)” value is 64.95 and the “Excision efficiency by ddPCR (Vehicle)” value was determined as 48.18. Further, in data set [2], the “% of CUG foci free nuclei (DNA-PKi)” value came out at 88.29% and the “% of CUG foci free nuclei (Vehicle)” value turned out to be 64.71%.
In the case of “SluU62 + SluD73 (guide 1 AGGACCCTTCGAGCCCCGTTCG; guide 2 CCAAAACGTGGATTGGGGTTGT; guide RNA; listed as DNA, chemistry not fully specified)”, in data set [1], the “Excision efficiency (by ddPCR)” value is 65.89 and the “Excision efficiency by ddPCR (Vehicle)” value is reported as 38.11. In data set [2], the “% of CUG foci free nuclei (DNA-PKi)” value is listed as 88.13% and the “% of CUG foci free nuclei (Vehicle)” value was determined as 52.87%.
Regarding “SluU08 + SluD18 (guide 1 GCCCCGTTGGAAGACTGAGTGC; guide 2 TGGAGGATGGAACACGGACGGC; guide RNA; listed as DNA, chemistry not fully specified)”, in data set [1], the “Excision efficiency (by ddPCR)” value is 63.55 and the “Excision efficiency by ddPCR (Vehicle)” value stood at 50.56. Further, in data set [2], the “% of CUG foci free nuclei (DNA-PKi)” value worked out at 90.44% and the “% of CUG foci free nuclei (Vehicle)” value worked out at 67.06%.
For “SluU64 + SluD68 (guide 1 GGGCTCGAAGGGTCCTTGTAGC; guide 2 CCTGTAGCCTGTCAGCGAGTCG; guide RNA; listed as DNA, chemistry not fully specified)”, in that order: 72.9, 46.16, 89.56% and 74.94%.
Consider “SluU59 + SluD56 (guide 1 CGCGGCCGGCGAACGGGGCTCG; guide 2 CCAGCCGGCTCCGCCCGCTTCG; guide RNA; listed as DNA, chemistry not fully specified)”, for which, in data set [1], the “Excision efficiency (by ddPCR)” value was 55.14 and the “Excision efficiency by ddPCR (Vehicle)” value was found to be 35.6. Further, in data set [2], the “% of CUG foci free nuclei (DNA-PKi)” value is 84.48% and the “% of CUG foci free nuclei (Vehicle)” value amounted to 46.4%.
For “SluU10 + SluD73 (guide 1 CCCGTTGGAAGACTGAGTGCCC; guide 2 CCAAAACGTGGATTGGGGTTGT; guide RNA; listed as DNA, chemistry not fully specified)”, in that order: 64.77, 46.13, 88.46% and 69.97%.
As for “SluU08 + SluD34 (guide 1 GCCCCGTTGGAAGACTGAGTGC; guide 2 CGCGCCAGACGCTCCCCAGAGC; guide RNA; listed as DNA, chemistry not fully specified)”, in data set [1], the “Excision efficiency (by ddPCR)” value turned out to be 69.47 and the “Excision efficiency by ddPCR (Vehicle)” value is reported as 58.11. In data set [2], the “% of CUG foci free nuclei (DNA-PKi)” value was 91.15% and the “% of CUG foci free nuclei (Vehicle)” value is reported as 77.93%.
For “SluU63 + SluD100 (guide 1 GGGGCTCGAAGGGTCCTTGTAG; guide 2 GTCCAGAGCTTTGGGCAGATGG; guide RNA; listed as DNA, chemistry not fully specified)”, in that order: 91.5, 58.24, 89.97% and 73.15%.
Consider “SluU10 + SluD68 (guide 1 CCCGTTGGAAGACTGAGTGCCC; guide 2 CCTGTAGCCTGTCAGCGAGTCG; guide RNA; listed as DNA, chemistry not fully specified)”, for which, in data set [1], the “Excision efficiency (by ddPCR)” value is on record as 61.29 and the “Excision efficiency by ddPCR (Vehicle)” value was 42.37. Further, in data set [2], the “% of CUG foci free nuclei (DNA-PKi)” value was determined as 89.5% and the “% of CUG foci free nuclei (Vehicle)” value is 68.15%.
Regarding “SluU63 + SluD34 (guide 1 GGGGCTCGAAGGGTCCTTGTAG; guide 2 CGCGCCAGACGCTCCCCAGAGC; guide RNA; listed as DNA, chemistry not fully specified)”, in data set [1], the “Excision efficiency (by ddPCR)” value came out at 93.5 and the “Excision efficiency by ddPCR (Vehicle)” value amounted to 63.27. Also, in data set [2], the “% of CUG foci free nuclei (DNA-PKi)” value was determined as 87.25% and the “% of CUG foci free nuclei (Vehicle)” value is given as 77.85%.
In the same order, the values of “SluU06 + SluD32 (guide 1 TGTCTTCGACTCCGGGGCCCCG; guide 2 CTTGTGCATGACGCCCTGCTCT; guide RNA; listed as DNA, chemistry not fully specified)” are 73.51, 50.63, 89.84% and 67.77%.
Consider “SluU06 + SluD100 (guide 1 TGTCTTCGACTCCGGGGCCCCG; guide 2 GTCCAGAGCTTTGGGCAGATGG; guide RNA; listed as DNA, chemistry not fully specified)”, for which, in data set [1], the “Excision efficiency (by ddPCR)” value is 65.68 and the “Excision efficiency by ddPCR (Vehicle)” value is listed as 40.89. Besides, in data set [2], the “% of CUG foci free nuclei (DNA-PKi)” value stood at 87.37% and the “% of CUG foci free nuclei (Vehicle)” value is on record as 64.95%.
On to “SluU08 + SluD48 (guide 1 GCCCCGTTGGAAGACTGAGTGC; guide 2 GAGAGCAGCGCAAGTGAGGAGG; guide RNA; listed as DNA, chemistry not fully specified)”, for which, in data set [1], the “Excision efficiency (by ddPCR)” value is recorded as 55.92 and the “Excision efficiency by ddPCR (Vehicle)” value came to 42.14. Moreover, in data set [2], the “% of CUG foci free nuclei (DNA-PKi)” value was found to be 87.63% and the “% of CUG foci free nuclei (Vehicle)” value came to 64.93%.
Consider “SluU06 + SluD56 (guide 1 TGTCTTCGACTCCGGGGCCCCG; guide 2 CCAGCCGGCTCCGCCCGCTTCG; guide RNA; listed as DNA, chemistry not fully specified)”, for which, in data set [1], the “Excision efficiency (by ddPCR)” value came to 54.91 and the “Excision efficiency by ddPCR (Vehicle)” value came out at 31.65. In data set [2], the “% of CUG foci free nuclei (DNA-PKi)” value was 85.13% and the “% of CUG foci free nuclei (Vehicle)” value came out at 47.08%.
Take “SluU08 + SluD68 (guide 1 GCCCCGTTGGAAGACTGAGTGC; guide 2 CCTGTAGCCTGTCAGCGAGTCG; guide RNA; listed as DNA, chemistry not fully specified)”: in data set [1], the “Excision efficiency (by ddPCR)” value was 62.56 and the “Excision efficiency by ddPCR (Vehicle)” value came to 42.63. For the same substance, in data set [2], the “% of CUG foci free nuclei (DNA-PKi)” value is 88.24% and the “% of CUG foci free nuclei (Vehicle)” value is listed as 65.1%.
For “SluU06 + SluD14 (guide 1 TGTCTTCGACTCCGGGGCCCCG; guide 2 ATGGGCAAACTGCAGGCCTGGG; guide RNA; listed as DNA, chemistry not fully specified)”, in that order: 65.02, 48.08, 83.37% and 66.72%.
For “SluU06 + SluD06 (guide 1 TGTCTTCGACTCCGGGGCCCCG; guide 2 CCAGGCTGAGGCCCTGACGTGG; guide RNA; listed as DNA, chemistry not fully specified)”, in that order: 57.64, 42.65, 87.02% and 62.81%.
For “SluU08 + SluD56 (guide 1 GCCCCGTTGGAAGACTGAGTGC; guide 2 CCAGCCGGCTCCGCCCGCTTCG; guide RNA; listed as DNA, chemistry not fully specified)”, in that order: 52.26, 32.16, 83.74% and 46.21%.
On to “SluU59 + SluD34 (guide 1 CGCGGCCGGCGAACGGGGCTCG; guide 2 CGCGCCAGACGCTCCCCAGAGC; guide RNA; listed as DNA, chemistry not fully specified)”, for which, in data set [1], the “Excision efficiency (by ddPCR)” value stood at 71.96 and the “Excision efficiency by ddPCR (Vehicle)” value is reported as 55.22. In addition, in data set [2], the “% of CUG foci free nuclei (DNA-PKi)” value was 89.01% and the “% of CUG foci free nuclei (Vehicle)” value was determined as 76.47%.
As to “SluU62 + SluD83 (guide 1 AGGACCCTTCGAGCCCCGTTCG; guide 2 GTGGGGACAGACAATAAATACC; guide RNA; listed as DNA, chemistry not fully specified)”, in data set [1], the “Excision efficiency (by ddPCR)” value stood at 68.69 and the “Excision efficiency by ddPCR (Vehicle)” value is 43.14. For the same substance, in data set [2], the “% of CUG foci free nuclei (DNA-PKi)” value is 88.94% and the “% of CUG foci free nuclei (Vehicle)” value is given as 56.65%.
Turning to “SluU64 + SluD34 (guide 1 GGGCTCGAAGGGTCCTTGTAGC; guide 2 CGCGCCAGACGCTCCCCAGAGC; guide RNA; listed as DNA, chemistry not fully specified)”, in data set [1], the “Excision efficiency (by ddPCR)” value amounted to 79.91 and the “Excision efficiency by ddPCR (Vehicle)” value turned out to be 76.35. Moreover, in data set [2], the “% of CUG foci free nuclei (DNA-PKi)” value is recorded as 91.45% and the “% of CUG foci free nuclei (Vehicle)” value was found to be 83.68%.
